From US10752634B2, “Crystalline forms of a brutons tyrosine kinase inhibitor” (Pharmacyclics LLC, priority 2012, dated 2020) come the findings set out here.

For one series, the system named is OCI-Ly10. Put plainly: Growth inhibition of OCI-Ly10 (ABC-DLBCL) cells. Format: cell-based. The conditions noted are these: Homo sapiens. From the text: See U.S. Pat. No. 7,711,492 and Staudt et al., Nature, Vol. 463, Jan. 7, 2010, pp. 88-92, the contents of which are incorporated by reference in their entirety.
Series [1] is described as follows: Thermodynamic aqueous solubility. The class given is physicochemical. The protocol:
The suspension was equilibrated at 25° C. for 24 hours then the pH was measured. The suspension was then filtered through a glass fibre C filter. The filtrate was then diluted by an appropriate factor e.g. 101. Quantitation was by HPLC with reference to a standard solution of approximately 0.25 mg/ml in DMSO. Different volumes of the standard, diluted and undiluted sample solutions were injected. The solubility was calculated using the peak areas determined by integration of the peak found at the same retention time as the principal peak in the standard injection.
Analysis was performed on an Agilent HP1100 series system equipped with a diode array detector and using ChemStation software vB.02.01-SR1.

Series [2] is described as follows: Solid form stability on storage, by XRPD. Format: physicochemical. The conditions noted are these: for XRPD pattern post storage: stated as property of the form. How it is done:
X-Ray powder diffraction patterns were collected on a Bruker AXS C2 GADDS or Bruker AXS D8 diffractometer.
X-Ray Powder Diffraction patterns were collected on a Bruker AXS C2 GADDS diffractometer using Cu Ka radiation (40 kV, 40 mA), automated XYZ stage, laser video microscope for auto-sample positioning and a HiStar 2-dimensional area detector. X-ray optics consists of a single Göbel multilayer mirror coupled with a pinhole collimator of 0.3 mm A weekly performance check is carried out using a certified standard NIST 1976 Corundum (flat plate). The beam divergence, i.e. the effective size of the X-ray beam on the sample, was approximately 4 mm. A θ-θ continuous scan mode was employed with a sample—detector distance of 20 cm which gives an effective 2θ range of 3.2°-29.7°. Typically the sample would be exposed to the X-ray beam for 120 seconds. The software used for data collection was GADDS for WNT 4.1.16 and the data were analysed and presented using Diffrac Plus EVA v11.0.0.2 or v13.0.0.2.
X-Ray Powder Diffraction patterns were collected on a Bruker D8 diffractometer using Cu Ka radiation (40 kV, 40 mA), θ-2θ goniometer, and divergence of V4 and receiving slits, a Ge monochromator and a Lynxeye detector. The instrument is performance checked using a certified Corundum standard (NIST 1976). The software used for data collection was Diffrac Plus XRD Commander v2.5.0 and the data were analysed and presented using Diffrac Plus EVA v11.0.0.2 or v13.0.0.2. Samples were run under ambient conditions as flat plate specimens using powder as received. The sample was gently packed into a cavity cut into polished, zero-background (510) silicon wafer. The sample was rotated in its own plane during analysis. The details of the data collection are: • Angular range: 2 to 42° 2θ • Step size: 0.05° 2θ • Collection time: 0.5 s/step

The conditions of series [3]: for changes in the XRPD after GVS analysis: after GVS isotherm; for mass change: between 0-90% RH. The protocol:
Sorption isotherms were obtained using a SMS DVS Intrinsic moisture sorption analyser, controlled by DVS Intrinsic Control software v1.0.0.30. The sample temperature was maintained at 25° C. by the instrument controls. […] The weight change, (mass relaxation) of the sample as a function of % RH was constantly monitored by the microbalance (accuracy ±0.005 mg). Typically 5-20 mg of sample was placed in a tared mesh stainless steel basket under ambient conditions. The sample was loaded and unloaded at 40% RH and 25° C. (typical room conditions). A moisture sorption isotherm was performed as outlined below (2 scans giving 1 complete cycle). The standard isotherm was performed at 25° C. at 10% RH intervals over a 0-90% RH range. Data analysis was undertaken in Microsoft Excel using DVS Analysis Suite v6.0.0.7. The sample was recovered after completion of the isotherm and re-analysed by XRPD.

Values after ≈ are worked out from the molar mass of the structure shown. Where two headings read alike, the source gives them in different places.

Take `C=CC(=O)N1CCC[C@@H](n2nc(-c3ccc(Oc4ccccc4)cc3)c3c(N)ncnc32)C1` [Compound 1, 1-((R)-3-(4-amino-3-(4-phenoxyphenyl)-1H-pyrazolo[3,4-d]pyrimidin-1-yl)piperidin-1-yl)prop-2-en-1-one]: the EC50 in the series with OCI-Ly10 (OCI-Ly10, 1 h, read-out: EC50 1 hour pulse, growth of OCI-Ly10) turned out to be 0.05 µM; in the series with OCI-Ly10 (OCI-Ly10, read-out: EC50 continuous exposure, growth of OCI-Ly10), 0.01 µM.

As to `C=CC(=O)N1CCC[C@@H](n2nc(-c3ccc(Oc4ccccc4)cc3)c3c(N)ncnc32)C1` [Form A, 1-((R)-3-(4-amino-3-(4-phenoxyphenyl)-1H-pyrazolo[3,4-d]pyrimidin-1-yl)piperidin-1-yl)prop-2-en-1-one], in series [1] (about pH 8, stated as property of the form), the observed aqueous solubility entry is on record as “about 0.013 mg/mL”. In series [1] (pH 8, 25° C., 24 hours), the “Solubility in aqueous solution, Conc. Found” value stood at 13 µg/mL (≈ 29.5 µM). Besides, the “XRPD pattern post storage” value in series [2] (25° C. and 97% RH for at least a week) was “substantially the same”; in series [2] (40° C. and 75% RH for at least a week), “substantially the same”. Further, the crystallinity after storage entry in series [2] (one week storage at 25° C./97% RH) and in series [2] (one week storage at 40° C./75% RH) was “unaffected” throughout. The “changes in the XRPD after GVS analysis” value in series [3] was “No significant changes”. Further, the mass change in series [3] (25° C.) was less than 0.3 % w/w.

For the compound `C=CC(=O)N1CCC[C@@H](n2nc(-c3ccc(Oc4ccccc4)cc3)c3c(N)ncnc32)C1` [Form B, 1-((R)-3-(4-amino-3-(4-phenoxyphenyl)-1H-pyrazolo[3,4-d]pyrimidin-1-yl)piperidin-1-yl)prop-2-en-1-one], in series [3] (0-90% RH, 25° C.), the “hysteresis in GVS” value is recorded as “No hysteresis”. In addition, the “changes in the XRPD after GVS analysis” value in series [3] is “No significant changes”. In addition, the mass change in series [3] (25° C.) came out at 2.3 % w/w.

Turning to `C=CC(=O)N1CCC[C@@H](n2nc(-c3ccc(Oc4ccccc4)cc3)c3c(N)ncnc32)C1` [Form E, 1-((R)-3-(4-amino-3-(4-phenoxyphenyl)-1H-pyrazolo[3,4-d]pyrimidin-1-yl)piperidin-1-yl)prop-2-en-1-one], the “form conversion on standing and drying” value in series [2] (standing at ambient temperature overnight and drying at 40° C. in vacuo for one day) is on record as “converted to Compound 1, Form A”.
